Legend:
SN-38 = compound: CCc1c2c(nc3ccc(O)cc13)-c1cc3c(c(=O)n1C2)COC(=O)[C@]3(O)CC [SN-38]; details: max 0.3 µM
Procedure, shortened: (§1)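 Cancer cell lines were seeded into 1536-well plates in 7.5 μl medium (DMEM/F12 or RPMI, 10% FBS), held 24 hours at 37°C and 5% CO2, and dosed for 72 hours with final DMSO typically 0.2%. Luminescence from CellTiter-Glo 2.0, scaled between blank-well and DMSO-well means, served as viability. The single-agent IC50 was obtained from dose-response fits with a non-linear mixed effects model, each fit being a two-parameter logistic curve.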

Palbociclib = compound: CC(=O)c1c(C)c2cnc(Nc3ccc(N4CCNCC4)cn3)nc2n(C2CCCC2)c1=O [Palbociclib]; details: max 10 µM
Procedure, shortened: as §1

Venetoclax = compound: CC1(C)CCC(CN2CCN(c3ccc(C(=O)NS(=O)(=O)c4ccc(NCC5CCOCC5)c([N+](=O)[O-])c4)c(Oc4cnc5[nH]ccc5c4)c3)CC2)=C(c2ccc(Cl)cc2)C1 [Venetoclax]; details: max 1 µM
Procedure, shortened: as §1

MK-2206 = compound: NC1(c2ccc(-c3nc4ccn5c(=O)[nH]nc5c4cc3-c3ccccc3)cc2)CCC1 [MK-2206]; details: max 10 µM
Procedure, shortened: as §1

Selumetinib = compound: Cn1cnc2c(F)c(Nc3ccc(Br)cc3Cl)c(C(=O)NOCCO)cc21 [Selumetinib]; details: max 10 µM
Procedure, shortened: as §1

AZD1775 = compound: C=CCn1c(=O)c2cnc(Nc3ccc(N4CCN(C)CC4)cc3)nc2n1-c1cccc(C(C)(C)O)n1 [AZD1775]; details: max 3 µM
Procedure, shortened: as §1

AZD1390 = compound: CC(C)n1c(=O)n(C)c2cnc3cc(F)c(-c4ccc(OCCCN5CCCCC5)nc4)cc3c21 [AZD1390]; details: max 0.3 µM
Procedure, shortened: as §1

Crizotinib = compound: C[C@@H](Oc1cc(-c2cnn(C3CCNCC3)c2)cnc1N)c1c(Cl)ccc(F)c1Cl [Crizotinib]; details: max 10 µM
Procedure, shortened: as §1

Savolitinib = compound: C[C@@H](c1ccc2nccn2c1)n1nnc2ncc(-c3cnn(C)c3)nc21 [Savolitinib]; details: max 1 µM
Procedure, shortened: as §1

SG3199 = compound: CC1=CN2[C@@H](C1)C=NC3=CC(=C(C=C3C2=O)OC)OCCCCCOC4=C(C=C5C(=C4)N=C[C@@H]6CC(=CN6C5=O)C)OC [SG3199]; details: max 0.001 µM
Procedure, shortened: as §1

AZD5991 = compound: Cc1c2c(nn1C)CSCc1cc(n(C)n1)CSc1cc(c3ccccc3c1)OCCCc1c(C(=O)O)n(C)c3c-2c(Cl)ccc13 [AZD5991]; details: max 1 µM
Procedure, shortened: as §1

Trametinib = compound: CC(=O)Nc1cccc(-n2c(=O)n(C3CC3)c(=O)c3c(Nc4ccc(I)cc4F)n(C)c(=O)c(C)c32)c1 [Trametinib]; details: max 1 µM
Procedure, shortened: as §1

Lapatinib = compound: CS(=O)(=O)CCNCc1ccc(-c2ccc3ncnc(Nc4ccc(OCc5cccc(F)c5)c(Cl)c4)c3c2)o1 [Lapatinib]; details: max 10 µM
Procedure, shortened: as §1

AZD6738 = compound: C[C@@H]1COCCN1C2=NC(=NC(=C2)C3(CC3)[S@](=N)(=O)C)C4=C5C=CNC5=NC=C4 [AZD6738]; details: max 10 µM
Procedure, shortened: as §1

Olaparib = compound: O=C(c1cc(Cc2n[nH]c(=O)c3ccccc23)ccc1F)N1CCN(C(=O)C2CC2)CC1 [Olaparib]
Procedure, shortened: as §1

Prexasertib = compound: COc1cccc(OCCCN)c1-c1cc(Nc2cnc(C#N)cn2)n[nH]1 [Prexasertib]; details: max 1 µM
Procedure, shortened: as §1

Gefitinib = compound: COc1cc2ncnc(Nc3ccc(F)c(Cl)c3)c2cc1OCCCN1CCOCC1 [Gefitinib]; details: max 10 µM
Procedure, shortened: as §1

Capivasertib = compound: C1CN(CCC1(C(=O)N[C@@H](CCO)C2=CC=C(C=C2)Cl)N)C3=NC=NC4=C3C=CN4 [Capivasertib]; details: max 10 µM
Procedure, shortened: as §1

AZD2811 = compound: CCN(CCO)CCCOc1ccc2c(Nc3cc(CC(=O)Nc4cccc(F)c4)[nH]n3)ncnc2c1 [AZD2811]; details: max 1 µM
Procedure, shortened: as §1

AZD0156 = compound: CN(C)CCCOc1ccc(-c2ccc3ncc4c(c3c2)n(C2CCOCC2)c(=O)n4C)cn1 [AZD0156]; details: max 3 µM
Procedure, shortened: as §1

AZD5153 = compound: COc1nnc2ccc(N3CCC(c4ccc(OCCN5CCN(C)C(=O)[C@H]5C)cc4)CC3)nn12 [AZD5153]; details: max 1 µM
Procedure, shortened: as §1

Taselisib = compound: Cc1nc(-c2cn3c(n2)-c2ccc(-c4cnn(C(C)(C)C(N)=O)c4)cc2OCC3)n(C(C)C)n1 [Taselisib]; details: max 10 µM
Procedure, shortened: as §1

Dasatinib = compound: CC1=C(C(=CC=C1)Cl)NC(=O)C2=CN=C(S2)NC3=CC(=NC(=N3)C)N4CCN(CC4)CCO [Dasatinib]; details: max 2 µM
Procedure, shortened: as §1

AZD7648 = compound: Cc1cc2ncnn2cc1Nc1ncc2c(n1)n(C1CCOCC1)c(=O)n2C [AZD7648]; details: max 10 µM
Procedure, shortened: as §1

AZD4320 = compound: CN(CC[C@H](CSC1=CC=CC=C1)NC2=C(C=C(C=C2)S(=O)(=O)NC(=O)C3=CC=C(C=C3)N4CCC(CC4)[C@H](C5=CC=CC=C5C6=CC=C(C=C6)Cl)O)S(=O)(=O)C(F)(F)F)CCO [AZD4320]; details: max 1 µM
Procedure, shortened: as §1

AZD8186 = compound: C[C@@H](Nc1cc(F)cc(F)c1)c1cc(C(=O)N(C)C)cc2c(=O)cc(N3CCOCC3)oc12 [AZD8186]; details: max 3 µM
Procedure, shortened: as §1

Alisertib = compound: COc1cc(Nc2ncc3c(n2)-c2ccc(Cl)cc2C(c2c(F)cccc2OC)=NC3)ccc1C(=O)O [Alisertib]; details: max 10 µM
Procedure, shortened: as §1

Doxorubicin = compound: COc1cccc2c1C(=O)c1c(O)c3c(c(O)c1C2=O)C[C@@](O)(C(=O)CO)C[C@@H]3O[C@H]1C[C@H](N)[C@H](O)[C@H](C)O1 [Doxorubicin]; details: max 1 µM
Procedure, shortened: as §1

| Cell Line | IC50, cell viability 72 h (SN-38) [nM] | IC50, cell viability 72 h (Palbociclib) [nM] | IC50, cell viability 72 h (Venetoclax) [nM] | IC50, cell viability 72 h (MK-2206) [nM] | IC50, cell viability 72 h (Selumetinib) [nM] | IC50, cell viability 72 h (AZD1775) [nM] | IC50, cell viability 72 h (AZD1390) [nM] | IC50, cell viability 72 h (Crizotinib) [nM] | IC50, cell viability 72 h (Savolitinib) [nM] | IC50, cell viability 72 h (SG3199) [nM] | IC50, cell viability 72 h (AZD5991) [nM] | IC50, cell viability 72 h (Trametinib) [nM] | IC50, cell viability 72 h (Lapatinib) [nM] | IC50, cell viability 72 h (AZD6738) [nM] | IC50, cell viability 72 h (Olaparib; max 10 µM) [nM] | IC50, cell viability 72 h (Prexasertib) [nM] | IC50, cell viability 72 h (Gefitinib) [nM] | IC50, cell viability 72 h (Capivasertib) [nM] | IC50, cell viability 72 h (AZD2811) [nM] | IC50, cell viability 72 h (AZD0156) [nM] | IC50, cell viability 72 h (AZD5153) [nM] | IC50, cell viability 72 h (Taselisib) [nM] | IC50, cell viability 72 h (Dasatinib) [nM] | IC50, cell viability 72 h (AZD7648) [nM] | IC50, cell viability 72 h (AZD4320) [nM] | IC50, cell viability 72 h (AZD8186) [nM] | IC50, cell viability 72 h (Alisertib) [nM] | IC50, cell viability 72 h (Doxorubicin) [nM] | IC50, cell viability 72 h (Olaparib; max 3 µM) [nM] |
| --- | --- | --- | --- | --- | --- | --- | --- | --- | --- | --- | --- | --- | --- | --- | --- | --- | --- | --- | --- | --- | --- | --- | --- | --- | --- | --- | --- | --- | --- |
| KYSE-150 (Esophageal Squamous Cell Carcinoma) | 117 | > 10000 | > 1000 | > 10000 | > 10000 | 1150 | > 300 | 4280 | > 1000 | > 1 | > 1000 | 498 | 3190 | > 10000 | > 10000 | > 1000 | > 10000 | > 10000 | > 1000 | > 3000 | 420 | 1340 | > 2000 | > 10000 | > 1000 | > 3000 | 5850 | 158 |  |
| ASH-3 (Thyroid Gland Carcinoma) | 28.8 | > 10000 | > 1000 | > 10000 | > 10000 | > 3000 | > 300 | > 10000 | > 1000 | > 1 | > 1000 | > 1000 | > 10000 | > 10000 | > 10000 | 569 | > 10000 | > 10000 | > 1000 | > 3000 | 283 | 6860 | 1240 | > 10000 | > 1000 | > 3000 | > 10000 | 688 |  |
| MFE-319 (Endometrial Carcinoma) | > 300 | > 10000 | > 1000 | > 10000 | > 10000 | 740 | > 300 | > 10000 | > 1000 | > 1 | > 1000 | > 1000 | > 10000 | 4510 | > 10000 | 51.5 | > 10000 | > 10000 | > 1000 | > 3000 | > 1000 | 9920 | > 2000 | > 10000 | > 1000 | > 3000 | > 10000 | > 1000 |  |
| NCI-H2405 (Lung Adenocarcinoma) | > 300 | > 10000 | > 1000 | > 10000 | > 10000 | > 3000 | > 300 | > 10000 | > 1000 | > 1 | > 1000 | 430 | > 10000 | > 10000 | > 10000 | > 1000 | > 10000 | > 10000 | > 1000 | > 3000 | > 1000 | > 10000 | > 2000 | > 10000 | > 1000 | > 3000 | > 10000 | > 1000 |  |
| OVISE (Ovarian Carcinoma) | > 300 | > 10000 | > 1000 | > 10000 | > 10000 | 952 | > 300 | > 10000 | > 1000 | > 1 | > 1000 | > 1000 | > 10000 | 5980 | > 10000 | 100 | > 10000 | > 10000 | > 1000 | > 3000 | 681 | 449 | 415 | > 10000 | 463 | > 3000 | 8950 | > 1000 |  |
| PFSK-1 (Other Solid Carcinomas) | 32.4 | > 10000 | > 1000 | 2090 | > 10000 | 1060 | > 300 | 3070 | > 1000 |  | 114 | > 1000 | > 10000 | 8130 |  | 40.4 | > 10000 | > 10000 | > 1000 | > 3000 | > 1000 | 626 | > 2000 | > 10000 | > 1000 | > 3000 | > 10000 |  | > 3000 |
| NCI-H2347 (Lung Adenocarcinoma) | > 300 | > 10000 | > 1000 | > 10000 | > 10000 | > 3000 | > 300 | > 10000 | > 1000 | > 1 | > 1000 | > 1000 | > 10000 | > 10000 | > 10000 | > 1000 | > 10000 | > 10000 | > 1000 | > 3000 | > 1000 | > 10000 | > 2000 | > 10000 | > 1000 | > 3000 | > 10000 | > 1000 |  |

From the supplement of paper PMC11061612
